How the values were obtained:
Format in all cases: cell-based
[1] = tested on: TDP-43 inclusions in PC12 cells stably expressing wild type (WT) TDP-43-GFP; assay: Dose response assay for TDP-43 inhibition; details: Rattus norvegicus, PC-12, inhibition of TDP-43 inclusions, stressed with 15 μM, 12-point dose response
Procedure: Exemplary compounds of the invention were evaluated for efficacy in inhibiting TDP-43 inclusions using a dose response assay. Briefly, PC12 cells stably expressing wild type (WT) TDP-43-GFP were stressed with 15 μM to induce TDP-43 inclusions. The cells were then treated with exemplary compounds of the invention and the inhibitory effect on TDP-43 inclusions was observed using fluorescent microscopy. The ratio of cells with TDP-43 inclusions was calculated based on the total number of cells with detectable GFP expression. A 12-point dose response curve was generated, and the IC50 for each compound tested was determined.

[2] = tested on: Embryonic mouse hippocampal neurons transduced with AAV1 EGFP, WT TDP-43 EGFP, A315T TDP-43 EGFP, or Q331K TDP-43 EGFP; assay: Neuroprotection assay; details: average rescue total dendrite length; neurons treated DIV7, 9, 11 at 10 times the IC50 value; fixed DIV12
Procedure: CMF dissection buffer: 1× Hank's balanced salt solution (Ca—/Mg, 500 mL) and 10 mM HEPES, pH 7.25-7.3 (1M stock, 5 mL)
Plating media: MEM (Earle salts+/Glutamine, 95 mL), FBS (to 2.5%, 2.5 mL), Pen/Strep (lx, 1 mL), glutamine (lx, 1 mL), and D-glucose (0.6% w/v, 0.6 g)
Feeding media: neurobasal media (96 mL), B27 supplement (2 mL), Pen/Strep (1 mL), and glutamine (1 mL).
Embryonic mouse hippocampal neurons were cultured according to Kaech, S. and Banker, G. (2006) Nat Protoc 1:2406-2415 and dissected at PO from CD1 mice. Once all the hippocampi were removed, they were placed in a 15 mL conical Falcon tube on ice and brought to a final volume of 4.5 mL with CMF dissection buffer. 0.5 mL of a 2.5% trypsin-EDTA solution was then added, and the mixture was incubated at 37° C. for 15 min. The trypsin solution was gently removed, leaving the tissue at the bottom of the Falcon tube. 5 mL CMF dissection buffer was then added, and after gentle mixing, the tissue was allowed to sediment. This procedure was repeated three times. The hippocampi were then dissociated by adding 1.8 mL platting media and repeatedly pipetting in a glass Pasteur pipette; the dissociation process was repeated 5-10 times. The cells were then passed through a 70 um cell strainer into a 50 mL conical tube to remove clumps and debris, and the neurons were plated on glass coverslips coated with poly-D-lysine/laminin. On DIV 1 neurons were transduced with AAV1 EGFP, WT TDP-43 EGFP, A315T TDP-43 EGFP, or Q331K TDP-43 EGFP. […] Neurons were traced and analyzed using NeuronJ.
Results of the neuroprotection assay for exemplary compounds of the invention are summarized in Table 2, wherein A represents an average rescue total dendrite length of >150%; B represents an average rescue total dendrite length of 100-149%; C represents an average rescue total dendrite length of 50-99%; D represents an average rescue total dendrite length of 0-49%; E represents an average rescue total dendrite length of <0%; and ND signifies that the average rescue total dendrite length was not determined.

[3] = tested on: TDP-43 aggregation in PC12 cells stably expressing TDP-43^Q331K::eGFP; assay: In vitro efficacy assay, TDP-43 aggregation concentration-response; details: Rattus norvegicus, PC-12, inhibition of TDP-43 aggregation; PC12 TDP-43^Q331K::eGFP, 1 hour pre-treatment, 15 μM sodium arsenite for 23 hours; 10-point dose response
In short: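 PC12 cells stably expressing TDP-43^Q331K::eGFP pre-treated with compound for 1 h, then stressed with 15 μM sodium arsenite for 23 h. Fluorescence microscopy scored the fraction of GFP-positive cells carrying TDP-43 aggregates across compound concentrations.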

SMILES | IC50 [1] [nM] | Average Additive Dendrite Length (%) [2] | IC50 [3] [nM]
COc1cc(NC(=O)CCC2CCCN(Cc3ccc(F)c(OC)c3)C2)cc(OC)c1 (stereo not shown) [Compound 100, N-(3,5-dimethoxyphenyl)-3-(1-(4-fluoro-3-methoxybenzyl)-piperidin-3-yl)propanamide] | 101 to 250 | E (E represents an average rescue total dendrite length of <0%) | –
CCN(CC1CCCN(CCc2cccc(OC)c2)C1)C(=O)c1cc2ccccc2[nH]1 (stereo not shown) [Compound 101, N-ethyl-N-((1-(3-methoxyphenethyl)piperidin-3-yl)methyl)-1H-indole-2-carboxamide] | 101 to 250 | C (C represents an average rescue total dendrite length of 50-99%) | < 1500
COc1ccccc1OCC(=O)NC1CCCN(c2nc3ccccc3s2)C1 (stereo not shown) [Compound 102, N-(1-(benzo[d]thiazol-2-yl)piperidin-3-yl)-2-(2-methoxyphenoxy)acetamide] | 251 to 500 | B (B represents an average rescue total dendrite length of 100-149%) | –

Source: patent US20180305334A1, “COMPOUNDS, COMPOSITIONS AND METHODS OF USE AGAINST STRESS GRANULES” (Aquinnah Pharmaceuticals, Inc., priority 2015, published 2018)
